Measured values: EP3287436B1, “COMPOUNDS AND COMPOSITIONS FOR USE IN THE TREATMENT OF BCAT1-MEDIATED DISEASES” (Ergon Pharmaceuticals LLC, priority 2016, dated 2018)

Experiments:
[1] = tested on: TGF-β1-stimulated human fibroblasts; assay: Inhibition of collagen I production/secretion (ELISA of conditioned media); assay type: cell-based; conditions: for concentration at which collagen I secretion is completely inhibited: Table 2; for concentration at which collagen I secretion is inhibited: summary of Table 3; for factor of increase of the collagen inhibitory activity: relative to compound 7
Protocol: In vitro fibrosis is assessed by measuring collagen synthesis after treatment of fibroblast cells with a profibrotic stimuli such as TGF-β1 or bleomycin. Collagen secretion into the media can be quantified in conditioned media using an appropriate ELISA kit.
Confluent monolayers of human fibroblasts, plated onto duplicate 35 mm dishes, were pretreated with various concentrations of compounds 2, 6, and 7 for 30 min followed by stimulation of the cells with 7 ng/mL TGF-β1 for 48 hrs. At the end of the experiment, conditioned media were collected and assessed for the presence of secreted collagen I, whereas cells were collected and lysed. Collagen I secretion was quantified using an ELISA kit from R&D Systems per the manufacturer's instructions and expressed as arbitrary absorbance units per µg of cell lysate. In Table 2, results are shown as % Control Collagen Production, defined as the amount of collagen I secreted per µg of cell lysate from fibroblast cultures stimulated with TGF-β1 in the absence of an inhibitor. […]
Confluent monolayers of human fibroblasts, plated onto duplicate 35 mm dishes, were pretreated with various concentrations of compounds 28 and 29 and Control Collagen Production determined according to the protocol set out in Example 5. In Table 3, results are shown as % Control Collagen Production, defined as the amount of collagen I secreted per µg of cell lysate from fibroblast cultures stimulated with TGF-β1 in the absence of an inhibitor. […]

recombinant human BCAT1 = molecular target: T1, recombinant human BCAT1 (Homo sapiens, UniProt P54687); assay: Inhibition of BCAT1 enzymatic activity (NADH consumption, coupled leucine dehydrogenase assay); assay type: biochemical; conditions: for remaining activity at 0.001 µM: compound concentration 1 nM; for remaining activity at 0.01 µM: compound concentration 10 nM; for remaining activity at 0.1 µM: compound concentration 100 nM; for IC50: inhibition of the enzymatic activity of BCAT1, range stated for compounds 2, 7 and 8 together
T1 construct: purchased Abcam
T1 sequence (P54687 1-386): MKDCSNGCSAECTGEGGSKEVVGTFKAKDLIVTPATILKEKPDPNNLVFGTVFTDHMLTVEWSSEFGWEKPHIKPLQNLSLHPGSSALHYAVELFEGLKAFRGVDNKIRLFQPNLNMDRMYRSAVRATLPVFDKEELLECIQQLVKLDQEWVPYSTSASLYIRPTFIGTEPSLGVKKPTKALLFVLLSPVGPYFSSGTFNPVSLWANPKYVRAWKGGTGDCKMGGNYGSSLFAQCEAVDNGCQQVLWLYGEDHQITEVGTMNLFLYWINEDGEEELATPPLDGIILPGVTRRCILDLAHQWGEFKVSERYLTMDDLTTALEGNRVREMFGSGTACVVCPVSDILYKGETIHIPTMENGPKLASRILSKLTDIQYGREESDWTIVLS
Protocol: Inhibition of BCAT1 enzymatic activity by compounds 2. 7 and 8. The ability of the compounds as disclosed herein to inhibit BCAT1 enzymatic activity was confirmed spectrophotometrically. In this experiment, 0.2 to 0.5 µg of recombinant human BCAT1 from Abcam was added to 95 µL of a reaction buffer containing […] 5'-phosphate (PLP), 50 mM ammonium sulfate, 0.05 mM NADH, 5mM DTT, 5mM a-ketoglutarate, 10 mM leucine, and 0.95 U leucine dehydrogenase (EMD Chemicals) and various concentrations of compounds 2, 7 and 8. Addition of BCAT1 to the reaction mixture led to the consumption of NADH, which was measured fluorometrically (ex:330-370 nm; em:450 nm). The rate of change of fluorescence was then estimated over of period of 10 min (10 cycles; 1 cycle/min). The assay was performed in triplicate in a 96-well plate. In Table 1, the results were expressed as % Control Enzymatic Activity, which is defined as the BCAT1 activity observed in the reaction mixture in the absence of an inhibitor. […]

[2] = compound concentration 2 nM (as printed in Table 2), 30 min pretreatment, 7 ng/mL TGF-β1 for 48 hrs
[3] = compound concentration 5 nM (as printed in Table 2), 30 min pretreatment, 7 ng/mL TGF-β1 for 48 hrs
[4] = compound concentration 10 nM (as printed in Table 2), 30 min pretreatment, 7 ng/mL TGF-β1 for 48 hrs
[5] = control = BCAT1 activity in the absence of an inhibitor

remaining activity at 0.001 µM (recombinant human BCAT1; [5]) [%]	remaining activity at 0.01 µM (recombinant human BCAT1; [5]) [%]	remaining activity at 0.1 µM (recombinant human BCAT1; [5]) [%]	IC50 (recombinant human BCAT1) [nM]	SMILES	concentration at which collagen I secretion is completely inhibited [1] [mM]	% Control Collagen Production [1, 2] [%]	% Control Collagen Production [1, 3] [%]	% Control Collagen Production [1, 4] [%]	concentration at which collagen I secretion is inhibited [1] [mM]	factor of increase of the collagen inhibitory activity [1]	other results
67	0	0	0.5 to 50	CC(=O)C(CCC(=O)O)c1ccccc1 (centres unmarked) [Compound 7, 5-oxo-4-phenylhexanoic acid]	5 to 10	150	41	2	5 to 10		
				CC(CCC(=O)O)C(=O)c1ccccc1 (centres unmarked) [Compound 6, 4-methyl-5-oxo-5-phenylpentanoic acid]	5 to 10	105	77	2			
	23	16	0.5 to 50	CC(=O)C(C)CC(CCC#N)C(=O)O (centres unmarked) [Compound 8, 2-(2-cyanoethyl)-4-methyl-5-oxohexanoic acid]							remaining activity at 0.0005 µM (recombinant human BCAT1; compound concentration 0.5 nM, control = BCAT1 activity in the absence of an inhibitor): 47%
				O=C(O)CCC(C(=O)c1ccccc1)c1ccccc1 (centres unmarked) [Compound 28, 5-oxo-4,5-diphenylpentanoic acid]					2	2-5	% Control Collagen Production ([1]; compound concentration 1 mM (Table 3), protocol of Example 5): 121%; % Control Collagen Production ([1]; compound concentration 2 mM (Table 3), protocol of Example 5): 18%; % Control Collagen Production ([1]; compound concentration 5 mM (Table 3), protocol of Example 5): 0%; % Control Collagen Production ([1]; compound concentration 10 mM (Table 3), protocol of Example 5): 0%
				O=C(O)CCC(C(=O)c1ccc(Br)cc1)c1ccccc1 (centres unmarked) [Compound 29, 5-(4-bromophenyl)-5-oxo-4-phenylpentanoic acid]					0.1	100	% Control Collagen Production ([1]; compound concentration 0.01 mM (Table 3), protocol of Example 5): 88%; % Control Collagen Production ([1]; compound concentration 0.05 mM (Table 3), protocol of Example 5): 71%; % Control Collagen Production ([1]; compound concentration 0.1 mM (Table 3), protocol of Example 5): 8%
86	71	28	0.5 to 50	CC(=O)C(C)CC(Cc1ccccc1)C(=O)O (centres unmarked) [Compound 2, 2-benzyl-4-methyl-5-oxohexanoic acid]	5 to 10	111	4				
